Target: T1, TcEIF4E5 (Trypanosoma cruzi, UniProt A0A2V2VRR6)
T1 sequence (A0A2V2VRR6 1-200): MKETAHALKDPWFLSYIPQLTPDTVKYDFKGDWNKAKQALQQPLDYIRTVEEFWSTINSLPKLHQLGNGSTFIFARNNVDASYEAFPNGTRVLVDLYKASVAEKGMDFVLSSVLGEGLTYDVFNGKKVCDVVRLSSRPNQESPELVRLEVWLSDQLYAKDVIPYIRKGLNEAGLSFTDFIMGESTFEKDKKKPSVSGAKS
Assay: X-ray crystal structure
Format: binding

Kd: 21 ± 7 µM
Compound: C[n+]1cn([C@@H]2O[C@H](COP(=O)(O)OP(=O)(O)OP(=O)(O)O)[C@@H](O)[C@H]2O)c2nc(N)[nH]c(=O)c21 [m7GTP]
